Test results as given in BindingDB's records for doi:10.1021/jm050524f (The Scripps Research Institute, 2005).

Experiments:
[1] = biological target: Hypoxia-inducible factor 1-alpha (Homo sapiens, UniProt Q16665); assay: Effective concentration to inhibit production of hypoxia inducible factor 1-alpha protein
[2] = Inhibitory concentration against NADH ubiquinone oxidoreductase
[3] = Inhibitory concentration against NADH-ubiquinone oxidoreductase

Chain of Hypoxia-inducible factor 1-alpha (Q16665 whole entry): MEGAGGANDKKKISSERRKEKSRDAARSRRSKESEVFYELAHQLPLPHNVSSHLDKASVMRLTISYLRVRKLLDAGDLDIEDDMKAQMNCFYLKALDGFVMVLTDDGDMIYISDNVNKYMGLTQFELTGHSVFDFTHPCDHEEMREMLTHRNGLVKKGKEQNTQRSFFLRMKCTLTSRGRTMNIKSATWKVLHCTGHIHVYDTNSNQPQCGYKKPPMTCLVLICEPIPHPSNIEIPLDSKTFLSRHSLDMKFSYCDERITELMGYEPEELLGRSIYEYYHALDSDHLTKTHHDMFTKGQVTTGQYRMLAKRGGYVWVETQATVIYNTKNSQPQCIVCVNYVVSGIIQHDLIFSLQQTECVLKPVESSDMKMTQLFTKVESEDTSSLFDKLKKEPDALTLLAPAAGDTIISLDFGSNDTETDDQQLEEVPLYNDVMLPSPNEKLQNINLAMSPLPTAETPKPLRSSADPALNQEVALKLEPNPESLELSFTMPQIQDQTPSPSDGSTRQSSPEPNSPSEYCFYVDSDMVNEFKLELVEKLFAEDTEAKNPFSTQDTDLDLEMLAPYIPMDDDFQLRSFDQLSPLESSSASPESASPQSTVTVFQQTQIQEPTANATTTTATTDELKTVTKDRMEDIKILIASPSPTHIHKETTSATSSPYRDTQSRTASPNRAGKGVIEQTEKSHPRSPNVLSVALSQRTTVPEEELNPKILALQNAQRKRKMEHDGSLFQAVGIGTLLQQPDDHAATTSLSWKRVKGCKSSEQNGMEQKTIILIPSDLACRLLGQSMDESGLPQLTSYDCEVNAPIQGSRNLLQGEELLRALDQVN

EC50 [1] [nM] | IC50 [2] [nM] | IC50 [3] [nM] | SMILES
35000 | – | – | COc1c(C(C)n2cnc3ncccc32)ccc2c1C=CC(C)(C)O2 (stereo not given) [1-[1-(5-Methoxy-2,2-dimethyl-2H-chromen-6-yl)-ethyl]-1H-imidazo[4,5-b]pyridine]
– | 55 | 55 | COc1cc(COC(=O)c2ccc3c(c2)C=CC(C)(C)O3)cc(OC)c1OC [2,2-Dimethyl-2H-chromene-6-carboxylic acid 3,4,5-trimethoxy-benzyl ester]
– | 18 | 18 | C=C(Cc1cc(OC)c(OC)c(OC)c1)c1ccc2c(c1)CCC(C)(C)O2 [2,2-Dimethyl-6-[1-(3,4,5-trimethoxy-benzyl)-vinyl]-chroman]
